Laboratory results from patent US20260356817A1, “AMINOPYRIMIDINE AND AMINOTRIAZINE DERIVATIVES AS MYC PROTEIN MODULATORS” (Sanford Burnham Prebys Medical Discovery Institute, priority 2022, published 2026).
Read-outs that look alike come from different tables or passages of the source.

Test system: Myc
Experiment: Myc inhibition assay: Myc expression per cell by anti-Myc immunofluorescence, high-content imaging
Assay type: cell-based, human (patient-derived medulloblastoma xenograft cells)
Settings: medulloblastoma PDX cells, 4 h
From the text: To identify Myc inhibitors, cells isolated from patient-derived orthotopic xenografts (PDXs) from patients with Myc-driven medulloblastoma were used. Specifically, PDX cells were propagated by transplantation directly into the cerebellum of immunodeficient (NSG) mice and were never passaged in vitro in order to maintain properties of the tumor from which they were derived. Tumor tissues were isolated from tumor-bearing animals, dissociated into a single-cell suspension, resuspended in serum-free media, and immediately plated in 384 well plates. After overnight recovery, compounds were added to each well, and cells were incubated for 4 hours before being fixed and stained with anti-Myc antibodies and with DAPI to label nuclei. Cells were then analyzed using high-content imaging to determine the levels of Myc expression per cell and IC50 values of the compounds.

[1] = Table 1, read-out: IC50 (Myc inhibition)
[2] = Table 2, read-out: MYC Inhibition IC50

Row | IC50 [1] | IC50 [2] | SMILES
1 | 1000 to 10000 nM | 1000 to 10000 nM | Fc1ccccc1Nc1nccc(-c2ccc3[nH]cnc3c2)n1 [Compound 66, 4-(1H-benzo[d]imidazol-5-yl)-N-(2-fluorophenyl)pyrimidin-2-amine]
2 | 200 to 1000 nM | 200 to 1000 nM | NC(=O)c1cccc(Nc2nccc(-c3ccc4[nH]cnc4c3)n2)c1 [Compound 67, 3-((4-(1H-benzo[d]imidazol-5-yl)pyrimidin-2-yl)amino)benzamide]
3 | 200 to 1000 nM | 200 to 1000 nM | c1cc(-c2ccc3[nH]cnc3c2)nc(Nc2ccsc2)n1 [Compound 68, 4-(1H-benzo[d]imidazol-5-yl)-N-(thiophen-3-yl)pyrimidin-2-amine]
4 | < 200 nM | < 200 nM | Clc1cccc(Nc2nccc(-c3ccc4[nH]cnc4c3)n2)c1 [Compound 69, 4-(1H-benzo[d]imidazol-5-yl)-N-(3-chlorophenyl)pyrimidin-2-amine]
5 | < 200 nM | < 200 nM | c1ccc(-c2cccc(Nc3nccc(-c4ccc5[nH]cnc5c4)n3)c2)cc1 [Compound 70, N-([1,1′-biphenyl]-3-yl)-4-(1H-benzo[d]imidazol-5-yl)pyrimidin-2-amine]
6 | 200 to 1000 nM | 200 to 1000 nM | CN1CCN(c2cccc(Nc3nccc(-c4ccc5[nH]cnc5c4)n3)c2)CC1 [Compound 71, 4-(1H-benzo[d]imidazol-5-yl)-N-(3-(4-methylpiperazin-1-yl)phenyl)pyrimidin-2-amine]
7 | 1000 to 10000 nM | 1000 to 10000 nM | CC(C)(C)c1ccc(Nc2nccc(-c3ccc4[nH]cnc4c3)n2)cc1 [Compound 72, 4-(1H-benzo[d]imidazol-5-yl)-N-(4-(tert-butyl)phenyl)pyrimidin-2-amine]
8 | 1000 to 10000 nM | 1000 to 10000 nM | NC(=O)c1ccc(Nc2nccc(-c3ccc4[nH]cnc4c3)n2)cc1 [Compound 73, 4-((4-(1H-benzo[d]imidazol-5-yl)pyrimidin-2-yl)amino)benzamide]
9 | 1000 to 10000 nM | 1000 to 10000 nM | CN1CCN(c2nccc(-c3ccc4[nH]cnc4c3)n2)CC1 [Compound 74, 5-(2-(4-methylpiperazin-1-yl)pyrimidin-4-yl)-1H-benzo[d]imidazole]
10 | 1000 to 10000 nM | 1000 to 10000 nM | c1csc(CNc2nccc(-c3ccc4[nH]cnc4c3)n2)c1 [Compound 75, 4-(1H-benzo[d]imidazol-5-yl)-N-(thiophen-2-ylmethyl)pyrimidin-2-amine]
11 | 1000 to 10000 nM | 1000 to 10000 nM | FC(F)(F)c1cccc(Nc2nccc(-c3ccc4scnc4c3)n2)c1 [Compound 76, 4-(benzo[d]thiazol-5-yl)-N-(3-(trifluoromethyl)phenyl)pyrimidin-2-amine]
12 | 200 to 1000 nM | 200 to 1000 nM | Cn1cc(Nc2nccc(-c3ccc4[nH]cnc4c3)n2)cn1 [Compound 77, 4-(1H-benzo[d]imidazol-5-yl)-N-(1-methyl-1H-pyrazol-4-yl)pyrimidin-2-amine]
13 | 1000 to 10000 nM | 1000 to 10000 nM | c1ccc(Nc2nccc(-c3ccc4[nH]cnc4c3)n2)cc1 [Compound 78, 4-(1H-benzo[d]imidazol-5-yl)-N-phenylpyrimidin-2-amine]

Further lines, the molecule ahead of its results:

Row | SMILES | IC50 [1] | IC50 [2]
14 | O=S(=O)(Nc1cccc(Nc2nccc(-c3ccc4[nH]cnc4c3)n2)c1)c1ccccc1 [Compound 38, N-(3-((4-(1H-benzo[d]imidazol-5-yl)pyrimidin-2-yl)amino)phenyl)benzenesulfonamide] | 200 to 1000 nM | 200 to 1000 nM
15 | c1ccc(-n2cc(Nc3nccc(-c4ccc5[nH]cnc5c4)n3)cn2)cc1 [Compound 39, 4-(1H-benzo[d]imidazol-5-yl)-N-(1-phenyl-1H-pyrazol-4-yl)pyrimidin-2-amine] | < 200 nM | < 200 nM
16 | Cc1cccc(Nc2nccc(-c3ccc4[nH]cnc4c3)n2)c1 [Compound 40, 4-(1H-benzo[d]imidazol-5-yl)-N-(m-tolyl)pyrimidin-2-amine] | 200 to 1000 nM | 200 to 1000 nM
17 | Cn1cnc2ccc(-c3ccnc(Nc4cccc(C(F)(F)F)c4)n3)cc21 [Compound 41, 4-(1-methyl-1H-benzo[d]imidazol-6-yl)-N-(3-(trifluoromethyl)phenyl)pyrimidin-2-amine] | < 200 nM | < 200 nM
18 | CNC(=O)c1cccc(Nc2nccc(-c3ccc4[nH]cnc4c3)n2)c1 [Compound 42, 3-((4-(1H-benzo[d]imidazol-5-yl)pyrimidin-2-yl)amino)-N-methylbenzamide] | 200 to 1000 nM | 200 to 1000 nM
19 | c1cc(Nc2nccc(-c3ccc4[nH]cnc4c3)n2)cc(-c2ccncc2)c1 [Compound 43, 4-(1H-benzo[d]imidazol-5-yl)-N-(3-(pyridin-4-yl)phenyl)pyrimidin-2-amine] | < 200 nM | < 200 nM
20 | c1ccc(-c2cccc(Nc3nccc(-c4ccc5[nH]cnc5c4)n3)c2)nc1 [Compound 44, 4-(1H-benzo[d]imidazol-5-yl)-N-(3-(pyridin-2-yl)phenyl)pyrimidin-2-amine] | < 200 nM | < 200 nM
21 | c1cncc(-c2cccc(Nc3nccc(-c4ccc5[nH]cnc5c4)n3)c2)c1 [Compound 45, 4-(1H-benzo[d]imidazol-5-yl)-N-(3-(pyridin-3-yl)phenyl)pyrimidin-2-amine] | < 200 nM | < 200 nM
22 | NS(=O)(=O)c1cccc(Nc2nccc(-c3ccc4[nH]cnc4c3)n2)c1 [Compound 46, 3-((4-(1H-benzo[d]imidazol-5-yl)pyrimidin-2-yl)amino)benzenesulfonamide] | < 200 nM | < 200 nM
23 | COCCNc1cccc(Nc2nccc(-c3ccc4[nH]cnc4c3)n2)c1 [Compound 47, N^1-(4-(1H-benzo[d]imidazol-5-yl)pyrimidin-2-yl)-N^3-(2-methoxyethyl)benzene-1,3-diamine] | 200 to 1000 nM | 200 to 1000 nM
24 | Cc1cc(Nc2nccc(-c3ccc4[nH]cnc4c3)n2)ccc1F [Compound 48, 4-(1H-benzo[d]imidazol-5-yl)-N-(4-fluoro-3-methylphenyl)pyrimidin-2-amine] | 200 to 1000 nM | 200 to 1000 nM
25 | Clc1cc(Cl)cc(Nc2nccc(-c3ccc4[nH]cnc4c3)n2)c1 [Compound 49, 4-(1H-benzo[d]imidazol-5-yl)-N-(3,5-dichlorophenyl)pyrimidin-2-amine] | 1000 to 10000 nM | 1000 to 10000 nM
26 | FC(F)(F)c1cccc(Nc2nccc(-c3ccc4[nH]cnc4c3)n2)c1 [Compound 50] | 1000 to 10000 nM | 1000 to 10000 nM
27 | Cc1ccccc1Nc1nccc(-c2ccc3[nH]cnc3c2)n1 [Compound 51, 4-(1H-benzo[d]imidazol-5-yl)-N-(o-tolyl)pyrimidin-2-amine] | 1000 to 10000 nM | 1000 to 10000 nM
28 | FC(F)(F)c1cccc(Nc2cc(-c3ccc4[nH]cnc4c3)ccn2)c1 [Compound 52, 4-(1H-benzo[d]imidazol-5-yl)-N-(3-(trifluoromethyl)phenyl)pyridin-2-amine] | 1000 to 10000 nM | 1000 to 10000 nM
29 | CC(C)(C)c1ccccc1Nc1nccc(-c2ccc3[nH]cnc3c2)n1 [Compound 53, 4-(1H-benzo[d]imidazol-5-yl)-N-(2-(tert-butyl)phenyl)pyrimidin-2-amine] | 1000 to 10000 nM | 1000 to 10000 nM
30 | CC(C)c1nnc(Nc2nccc(-c3ccc4[nH]cnc4c3)n2)[nH]1 [Compound 54, 4-(1H-benzo[d]imidazol-5-yl)-N-(5-isopropyl-4H-1,2,4-triazol-3-yl)pyrimidin-2-amine] | 1000 to 10000 nM | 1000 to 10000 nM
31 | c1ccc2cc(Nc3nccc(-c4ccc5[nH]cnc5c4)n3)ccc2c1 [Compound 55, 4-(1H-benzo[d]imidazol-5-yl)-N-(naphthalen-2-yl)pyrimidin-2-amine] | 200 to 1000 nM | 200 to 1000 nM
32 | c1cc(-c2ccc3[nH]cnc3c2)nc(Nc2cnoc2)n1 [Compound 56, N-(4-(1H-benzo[d]imidazol-5-yl)pyrimidin-2-yl)isoxazol-4-amine] | 200 to 1000 nM | 200 to 1000 nM
33 | c1cc(Nc2nccc(-c3ccc4[nH]cnc4c3)n2)[nH]n1 [Compound 57, 4-(1H-benzo[d]imidazol-5-yl)-N-(1H-pyrazol-5-yl)pyrimidin-2-amine] | 1000 to 10000 nM | 1000 to 10000 nM
34 | FC(F)(F)c1nnc(Nc2nccc(-c3ccc4[nH]cnc4c3)n2)s1 [Compound 58, N-(4-(1H-benzo[d]imidazol-5-yl)pyrimidin-2-yl)-5-(trifluoromethyl)-1,3,4-thiadiazol-2-amine] | 1000 to 10000 nM | 1000 to 10000 nM
35 | Cc1ccc(Nc2nccc(-c3ccc4[nH]cnc4c3)n2)cc1C [Compound 60, 4-(1H-benzo[d]imidazol-5-yl)-N-(3,4-dimethylphenyl)pyrimidin-2-amine] | 200 to 1000 nM | 200 to 1000 nM
36 | COc1ccccc1Nc1nccc(-c2ccc3[nH]cnc3c2)n1 [Compound 61, 4-(1H-benzo[d]imidazol-5-yl)-N-(2-methoxyphenyl)pyrimidin-2-amine] | 1000 to 10000 nM | 1000 to 10000 nM
37 | FC(F)(F)c1ccccc1Nc1nccc(-c2ccc3[nH]cnc3c2)n1 [Compound 62, 4-(1H-benzo[d]imidazol-5-yl)-N-(2-(trifluoromethyl)phenyl)pyrimidin-2-amine] | 1000 to 10000 nM | 1000 to 10000 nM
38 | O=C1CNCCN1c1cccc(Nc2nccc(-c3ccc4[nH]cnc4c3)n2)c1 [Compound 63, 1-(3-((4-(1H-benzo[d]imidazol-5-yl)pyrimidin-2-yl)amino)phenyl)piperazin-2-one] | 1000 to 10000 nM | 1000 to 10000 nM
39 | CC(C)c1ccccc1Nc1nccc(-c2ccc3[nH]cnc3c2)n1 [Compound 64, 4-(1H-benzo[d]imidazol-5-yl)-N-(2-isopropylphenyl)pyrimidin-2-amine] | 1000 to 10000 nM | 1000 to 10000 nM
40 | c1cc(Nc2nccc(-c3ccc4[nH]cnc4c3)n2)cc(N2CCCCC2)c1 [Compound 65, 4-(1H-benzo[d]imidazol-5-yl)-N-(3-(piperidin-1-yl)phenyl)pyrimidin-2-amine] | 200 to 1000 nM | 200 to 1000 nM
